Source: the NIST ThermoML archive (doi:10.1016/j.jct.2018.11.010)

Test: xn = mol fraction of the nth substance listed
Conditions: Liquid, Vibrating tube method

CCCCCCCO [heptan-1-ol] + CCCCOCCCC
mass density [kg/m3]
Conditions | x2 = 0 | x2 = 0.1488 | x2 = 0.3201 | x2 = 0.4944 | x2 = 0.7014 | x2 = 0.8534
298.15 K, 90000 kPa | 863.5 | 856.7 | 849.1 | 841.9 | 833 | 827
298.15 K, 100000 kPa | 867.3 | 860.7 | 853.2 | 846.1 | 837.4 | 831.5
298.15 K, 110000 kPa | 871.1 | 864.6 | 857.2 | 850.2 | 841.6 | 835.8
298.15 K, 120000 kPa | 874.6 | 868.2 | 861 | 854 | 845.6 | 839.9
298.15 K, 130000 kPa | 878.1 | 871.8 | 864.6 | 857.8 | 849.6 | 843.9
298.15 K, 140000 kPa | 881.5 | 875.3 | 868.2 | 861.4 | 853.3 | 847.8
313.15 K, 100 kPa | 808 | 799 | 788.8 | 778.9 | 767 | 758.8
313.15 K, 1000 kPa | 808.6 | 799.7 | 789.5 | 779.7 | 767.8 | 759.7
313.15 K, 5000 kPa | 811.4 | 802.6 | 792.5 | 783 | 771.3 | 763.3
313.15 K, 10000 kPa | 814.7 | 806.1 | 796.3 | 786.9 | 775.6 | 767.8
313.15 K, 15000 kPa | 817.9 | 809.5 | 799.8 | 790.7 | 779.5 | 771.9
313.15 K, 20000 kPa | 821 | 812.7 | 803.3 | 794.3 | 783.4 | 775.9
313.15 K, 25000 kPa | 823.8 | 815.6 | 806.4 | 797.5 | 786.8 | 779.4
313.15 K, 30000 kPa | 826.8 | 818.8 | 809.7 | 801 | 790.5 | 783.3
313.15 K, 35000 kPa | 829.5 | 821.6 | 812.7 | 804.2 | 793.7 | 786.7
313.15 K, 40000 kPa | 832.1 | 824.4 | 815.5 | 807.1 | 796.9 | 790
313.15 K, 45000 kPa | 834.7 | 827 | 818.3 | 810.1 | 800 | 793.2
